Read-outs that look alike come from different tables or passages of the source.
Experiments:
Assay type in all cases: biochemical
[1] = biological target: T1, trypsin, type IX from porcine pancreas (Sus scrofa, UniProt P00761); experiment: Trypsin Assay (L-BAPNA, 405 nm)
T1 construct: purchased Sigma, St. Louis Mo; host or cells: porcine pancreas
Method: 5 ug/ml trypsin, type IX^0 from porcine pancreas and 0.375 mM N-α-Benzoyl-L-arginine-p-nitroanilide (L-BAPNA) are added to a 96-well assay plate containing either inhibitor or buffer (50 mM Tris-HCl, pH 8.0, 100 mM NaCl, 0.1% BSA). The reactions, in a final volume of 100 ul are measured immediately at 405 nm to determine background absorbance. The plate is incubated at room temperature for 60 min, at which time the rate of hydrolysis of the substrate is measured by monitoring the reaction at 405 nm for the release of p-nitroaniline. Percent inhibition of trypsin activity is calculated from OD405nm value from the experimental and control sample.
(§1) Recombinant soluble TF, consisting of amino acids 1-219 of the mature protein sequence was expressed in E. coli and purified using a Mono Q Sepharose FPLC. Recombinant human Vlla was purchased from American Diagnostica, Greenwich Conn. and chromogenic substrate N-Methylsulfonyl-D-phe-gly-arg-p-nitroaniline was prepared by American Peptide Company, Inc., Sunnyvale, Calif. Factor Xa was obtained from Enzyme Research Laboratories, South Bend Ind., thrombin from Calbiochem, La Jolla, Calif., and trypsin and L-BAPNA from Sigma, St. Louis Mo. The chromogenic substrates S-2765 and S-2238 were purchased from Chromogenix, Sweden.

[2] = biological target: T2, human factor Xa (Homo sapiens, UniProt P00742); experiment: Xa Assay (chromogenic substrate S-2765, 405 nm)
T2 construct: leads from XII to XIIa to XIa to IXa and to the conversion of X to Xa; purchased Enzyme Research Laboratories, South Bend Ind
T2 sequence (P00742 235-488 limits assumed): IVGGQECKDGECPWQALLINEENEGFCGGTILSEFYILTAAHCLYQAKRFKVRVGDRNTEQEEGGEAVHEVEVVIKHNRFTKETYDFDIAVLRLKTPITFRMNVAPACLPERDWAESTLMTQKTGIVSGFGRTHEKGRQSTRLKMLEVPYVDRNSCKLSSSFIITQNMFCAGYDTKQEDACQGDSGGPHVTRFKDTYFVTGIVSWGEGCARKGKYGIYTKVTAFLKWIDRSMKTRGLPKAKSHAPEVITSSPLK
T2 sequence (P00742 41-179 limits assumed): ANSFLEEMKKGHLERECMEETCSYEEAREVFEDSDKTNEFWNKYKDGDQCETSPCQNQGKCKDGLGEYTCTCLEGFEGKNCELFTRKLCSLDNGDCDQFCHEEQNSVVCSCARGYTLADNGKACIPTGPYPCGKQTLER
Method: 0.3 nM human factor Xa and 0.15 mM N-a-Benzyloxycarbonyl-D-arginyl-L-glycyl-L-arginine-p-nitroaniline-dihydrochloride (S-2765) are added to a 96-well assay plate containing either inhibitor or buffer (50 mM Tris-HCl, pH 8.0, 100 mM NaCl, 0.1% BSA). The reaction, in a final volume of 100 ul is measured immediately at 405 nm to determine background absorbance. The plate is incubated at room temperature for 60 min, at which time the rate of hydrolysis of the substrate is measured by monitoring the reaction at 405 nm for the release of p-nitroaniline. Percent inhibition of Xa activity is calculated from OD405nm value from the experimental and control sample.
as §1

[3] = biological target: human thrombin (Homo sapiens, UniProt P00734); experiment: Thrombin Assay (chromogenic substrate, 405 nm); details: for IC50: read-out: Thrombin II IC50; for Thrombin II percent inhibition: at 30 (uM)
Method: 0.28 nM human thrombin and 0.06 mM H-D-Phenylalanyl-L-pipecolyl-L-arginine-p-nitroaniline dihydrochloride are added to a 96-well assay plate containing either inhibitor or buffer (50 mM Tris-HCl, pH 8.0, 100 mM NaCl, 0.1% BSA). The reaction, in a final volume of 100 ul is measured immediately at 405 nm to determine background absorbance. The plate is incubated at room temperature for 60 min, at which time the rate of hydrolysis of the substrate is measured by monitoring the reaction at 405 nm for the release of p-nitroaniline. Percent inhibition of thrombin activity is calculated from OD405nm value from the experimental and control sample.

[4] = biological target: T3, recombinant soluble tissue factor and recombinant human factor VIIa (TF-VIIa) (Homo sapiens, UniProt P08709); experiment: TF-VIIa Assay (chromogenic substrate hydrolysis, 405 nm); details: read-out: IF-VIIA IC50
T3 construct: purchased American Diagnostica, Greenwich Conn; soluble TF made in house in E. coli
T3 sequence (P08709 213-466 limits assumed): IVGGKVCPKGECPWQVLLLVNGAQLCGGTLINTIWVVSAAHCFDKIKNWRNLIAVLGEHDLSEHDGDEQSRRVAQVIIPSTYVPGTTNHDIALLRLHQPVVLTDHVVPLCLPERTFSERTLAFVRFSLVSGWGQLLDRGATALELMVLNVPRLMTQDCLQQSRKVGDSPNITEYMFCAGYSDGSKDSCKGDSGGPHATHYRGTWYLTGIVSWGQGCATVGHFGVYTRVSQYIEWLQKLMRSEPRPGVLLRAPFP
T3 sequence (P08709 61-212 limits assumed): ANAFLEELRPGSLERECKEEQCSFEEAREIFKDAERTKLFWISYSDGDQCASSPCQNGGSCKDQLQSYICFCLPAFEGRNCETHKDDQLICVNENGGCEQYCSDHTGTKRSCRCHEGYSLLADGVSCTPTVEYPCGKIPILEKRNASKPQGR
T3 sequence (P13726 33-251 partner limits assumed): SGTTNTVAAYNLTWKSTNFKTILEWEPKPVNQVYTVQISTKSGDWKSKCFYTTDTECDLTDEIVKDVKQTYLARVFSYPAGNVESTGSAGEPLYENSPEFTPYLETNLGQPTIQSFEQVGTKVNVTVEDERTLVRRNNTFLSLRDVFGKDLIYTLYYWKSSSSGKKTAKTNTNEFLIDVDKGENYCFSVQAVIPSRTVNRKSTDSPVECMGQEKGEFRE
Method: In this assay 100 nM recombinant soluble tissue factor and 2 nM recombinant human factor VIla are added to a 96-well assay plate containing 0.4 mM of the substrate, N-Methylsulfonyl-D-phe-gly-arg-p-nitroaniline and either inhibitor or buffer (5 mM CaCI2, 50 mM Tris-HCl, pH 8.0, 100 mM NaCl, 0.1% BSA). The reaction, in a final volume of 100 ul is measured immediately at 405 nm to determine background absorbance. The plate is incubated at room temperature for 60 min, at which time the rate of hydrolysis of the substrate is measured by monitoring the reaction at 405 nm for the release of p-nitroaniline. Percent inhibition of TF-VIIa activity is calculated from OD405nm value from the experimental and control sample.

T1 sequence (P00761 9-231): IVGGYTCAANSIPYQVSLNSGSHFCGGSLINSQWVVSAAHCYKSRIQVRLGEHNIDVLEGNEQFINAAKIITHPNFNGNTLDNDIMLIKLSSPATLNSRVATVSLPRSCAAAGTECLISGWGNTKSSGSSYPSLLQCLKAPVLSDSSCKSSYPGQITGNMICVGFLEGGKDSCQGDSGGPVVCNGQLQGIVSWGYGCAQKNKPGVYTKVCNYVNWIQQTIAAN

SMILES: O=C(NCC1CCNCC1)c1cc(NS(=O)(=O)Cc2ccccc2)ccc1Sc1ccccc1 [Example 1]
- IC50 ([1]; read-out: Trpysin II IC50): 0.3 µM
- IC50 [2]: > 30 µM
- IC50 [3]: > 30 µM

SMILES: O=C(NCc1ccncc1)c1cc(NS(=O)(=O)Cc2ccccc2)ccc1Sc1ccccc1 [Example 3]
- IC50 ([1]; read-out: Trpysin II IC50): > 30 µM
- IC50 [3]: > 30 µM

SMILES: N=C(N)NCCCCNC(=O)c1cc(NS(=O)(=O)Cc2ccccc2)ccc1Sc1ccccc1 [Example 7]
- IC50 [4]: > 100 µM
- IC50 ([1]; read-out: Trpysin II IC50): > 100 µM
- IC50 [2]: > 100 µM
- IC50 [3]: > 100 µM

SMILES: N=C(N)NCCCCCNC(=O)c1cc(NS(=O)(=O)Cc2ccccc2)ccc1Sc1ccccc1 [Example 8]
- IC50 [4]: > 100 µM
- IC50 ([1]; read-out: Trpysin II IC50): > 100 µM
- IC50 [2]: > 100 µM
- IC50 [3]: > 100 µM

SMILES: N=C(N)NCCCCCNC(=O)Cc1c(F)ccc(NS(=O)(=O)Cc2ccccc2)c1F [Example 15]
- IC50 ([1]; read-out: Trpysin II IC50): > 30 µM
- IC50 [3]: > 30 µM

SMILES: O=C(Cc1c(F)ccc(NS(=O)(=O)Cc2ccccc2)c1F)NCc1ccncc1 [Example 11]
- IC50 ([1]; read-out: Trpysin II IC50): > 30 µM
- IC50 [2]: > 30 µM
- IC50 [3]: > 30 µM

SMILES: O=C(Cc1c(F)ccc(NS(=O)(=O)Cc2ccccc2)c1F)NCCCn1ccnc1 [Example 12]
- IC50 ([1]; read-out: Trpysin II IC50): > 30 µM
- IC50 [3]: > 30 µM

SMILES: CN(C)c1ccc(CNC(=O)c2cc(NS(=O)(=O)Cc3ccccc3)ccc2Sc2ccccc2)cc1 [Example 2]
- IC50 ([1]; read-out: Trpysin II IC50): > 30 µM
- IC50 [3]: > 30 µM

SMILES: COc1c(NCCc2ccccc2)ccc(-c2ccccc2)c1CC(=O)NCc1ccc(C(=N)N)cc1 [Example 18]
- IC50 [4]: 25 µM
- IC50 ([1]; read-out: Trpysin II IC50): 0.5 µM
- IC50 [2]: > 30 µM
- IC50 [3]: 9.5 µM

SMILES: N=C(N)c1ccc(CNC(=O)Cc2c(F)ccc(NS(=O)(=O)Cc3ccccc3)c2F)cc1 [Example 14]
- IC50 ([1]; read-out: Trpysin II IC50): 7.3 µM
- IC50 [3]: ~30 µM

SMILES: N=C(N)c1ccc(CNC(=O)Cc2c(-c3ccccc3)ccc(NCCc3ccccc3)c2O)cc1 [Example 19]
- IC50 [4]: 2.7 µM
- IC50 ([1]; read-out: Trpysin II IC50): 0.2 µM
- IC50 [3]: 7 µM

SMILES: Cl.N=C(N)c1ccc(CNC(=O)c2cc(NS(=O)(=O)Cc3ccccc3)ccc2Sc2ccccc2)cc1 [Example 4]
- IC50 [1]: 0.3 µM
- Thrombin II percent inhibition [3]: 22% at 30

SMILES: O=C(Cc1c(F)ccc(NS(=O)(=O)Cc2ccccc2)c1F)NCC1CCNCC1 [Example 9]
- IC50 ([1]; read-out: Trpysin II IC50): 0.3 µM
- IC50 [3]: > 30 µM

SMILES: N=C(N)c1ccc(CNC(=O)Cc2c(F)ccc(NCCc3ccccc3)c2F)cc1 [Example 16]
- IC50 [4]: 16.4 µM
- IC50 ([1]; read-out: Trpysin II IC50): 0.8 µM
- Factor Xa percent inhibition ([2]; at 30 (uM)): 1% at 30
- IC50 [3]: 1.6 µM

SMILES: N=C(N)c1ccc(CNC(=O)Cc2c(-c3cccc(N)c3)ccc(NCc3ccccc3)c2F)cc1 [Example 20]
- IC50 [4]: 0.67 µM
- IC50 ([1]; read-out: Trpysin II IC50): 0.2 µM
- IC50 [2]: > 30 µM
- IC50 [3]: 9 µM

SMILES: N=C(N)c1cccc(CNC(=O)Cc2c(F)ccc(NS(=O)(=O)Cc3ccccc3)c2F)c1 [Example 13]
- IC50 ([1]; read-out: Trpysin II IC50): > 30 µM
- IC50 [2]: > 30 µM
- IC50 [3]: > 30 µM

SMILES: CN(C)c1ccc(CNC(=O)Cc2c(F)ccc(NS(=O)(=O)Cc3ccccc3)c2F)cc1 [Example 10]
- IC50 ([1]; read-out: Trpysin II IC50): > 30 µM
- IC50 [2]: > 30 µM
- IC50 [3]: > 30 µM

SMILES: N=C(N)c1ccc(CNC(=O)Cc2c(-c3ccccc3)ccc(NCCc3ccccc3)c2F)cc1 [Example 17]
- IC50 [4]: 4 µM
- IC50 ([1]; read-out: Trpysin II IC50): 0.2 µM
- IC50 [3]: 7 µM

SMILES: N=C(N)NCCCNC(=O)c1cc(NS(=O)(=O)Cc2ccccc2)ccc1Sc1ccccc1 [Example 6]
- IC50 [4]: > 100 µM
- IC50 ([1]; read-out: Trpysin II IC50): > 100 µM
- IC50 [2]: > 100 µM
- IC50 [3]: > 100 µM

SMILES: N=C(N)c1cccc(CNC(=O)c2cc(NS(=O)(=O)Cc3ccccc3)ccc2Sc2ccccc2)c1 [Example 5]
- IC50 [4]: > 30 µM
- IC50 ([1]; read-out: Trpysin II IC50): 23 µM
- Factor Xa percent inhibition ([2]; at 30 (uM)): 7% at 30
- Thrombin II percent inhibition [3]: 43% at 30

SMILES: COc1c(NC(C)C)ccc(-c2ccccc2)c1CC(=O)NCc1ccc(C(=N)N)cc1 [Example 22]
- IC50 [4]: 14.7 µM
- IC50 ([1]; read-out: Trpysin II IC50): 0.1 µM
- IC50 [3]: 7.9 µM

SMILES: CC(C)Nc1ccc(-c2cccc(N)c2)c(CC(=O)NCc2ccc(C(=N)N)cc2)c1F [Example 21]
- IC50 ([1]; read-out: Trpysin II IC50): < 0.04 µM
- Factor Xa percent inhibition ([2]; concentration not given): 18%

From patent US6660885B2, “Polycyclic aryl and heteroaryl substituted benzenes useful for selective inhibition of the coagulation cascade” (Pharmacia Corporation, priority 2000, dated 2003)
